# Measured values taken from ChEMBL document CHEMBL1146624, “Synthesis and evaluation of 4-anilino-6,7-dialkoxy-3-quinolinecarbonitriles as inhibitors of kinases of the Ras-MAPK signaling cascade” (Bioorg Med Chem Lett, 2003).
# pIC50: −log10 of the molar value.
# Key:
# [1] = biological target: T1, Dual specificity mitogen-activated protein kinase kinase 1 (Homo sapiens, UniProt Q02750)
# [2] = system: Caco-2; assay: cells; details: Homo sapiens
# [3] = system: LoVo; assay: cells; details: Homo sapiens
# [4] = biological target: Serine/threonine-protein kinase AKT (Homo sapiens, UniProt P31751+Q9Y243+P31749); assay: Inhibition of Akt phosphorylation in LoVo cells; type: functional, cell-based
# [5] = biological target: T1, Dual specificity mitogen-activated protein kinase kinase 1; assay: Inhibition of MEK1 phosphorylation in LoVo cells; type: functional, cell-based
# [6] = system: LoVo; assay: Inhibition of tyrosine phosphorylation in LoVo cells; type: functional, cell-based; details: Homo sapiens
# [7] = biological target: Epidermal growth factor receptor (Homo sapiens, UniProt P00533)
# Epidermal growth factor receptor, sequence (P00533 whole entry): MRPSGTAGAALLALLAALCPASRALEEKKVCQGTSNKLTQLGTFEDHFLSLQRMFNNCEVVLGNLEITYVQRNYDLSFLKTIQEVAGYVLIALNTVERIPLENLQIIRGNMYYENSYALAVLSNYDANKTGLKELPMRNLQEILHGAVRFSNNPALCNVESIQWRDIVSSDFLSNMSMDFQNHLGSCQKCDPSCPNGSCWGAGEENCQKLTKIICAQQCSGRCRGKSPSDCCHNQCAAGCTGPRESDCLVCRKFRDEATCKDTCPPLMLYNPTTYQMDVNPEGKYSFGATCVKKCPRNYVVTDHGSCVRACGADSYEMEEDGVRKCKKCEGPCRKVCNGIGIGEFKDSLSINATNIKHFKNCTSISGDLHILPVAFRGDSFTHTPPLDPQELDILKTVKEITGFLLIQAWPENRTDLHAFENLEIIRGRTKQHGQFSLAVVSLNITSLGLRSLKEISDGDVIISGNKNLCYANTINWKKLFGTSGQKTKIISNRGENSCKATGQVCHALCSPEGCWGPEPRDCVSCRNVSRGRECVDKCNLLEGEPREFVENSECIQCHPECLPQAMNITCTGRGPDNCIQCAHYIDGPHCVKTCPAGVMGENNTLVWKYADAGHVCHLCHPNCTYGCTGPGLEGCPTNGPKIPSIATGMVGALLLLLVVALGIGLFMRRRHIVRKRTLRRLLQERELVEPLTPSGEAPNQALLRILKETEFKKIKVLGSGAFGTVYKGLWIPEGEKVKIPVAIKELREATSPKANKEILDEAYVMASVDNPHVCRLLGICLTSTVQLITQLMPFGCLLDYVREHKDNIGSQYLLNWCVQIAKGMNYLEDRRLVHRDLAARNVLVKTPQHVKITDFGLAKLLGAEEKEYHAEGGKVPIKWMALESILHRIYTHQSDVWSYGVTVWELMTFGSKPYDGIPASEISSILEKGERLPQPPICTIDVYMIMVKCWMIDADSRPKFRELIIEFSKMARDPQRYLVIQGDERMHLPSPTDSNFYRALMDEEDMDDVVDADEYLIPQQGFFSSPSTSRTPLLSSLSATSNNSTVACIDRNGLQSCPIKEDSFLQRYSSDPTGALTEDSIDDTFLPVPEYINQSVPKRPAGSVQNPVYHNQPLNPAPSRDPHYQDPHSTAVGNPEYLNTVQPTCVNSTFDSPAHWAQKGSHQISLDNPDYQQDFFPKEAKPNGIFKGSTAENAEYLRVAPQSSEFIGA
# T1 sequence (Q02750 whole entry): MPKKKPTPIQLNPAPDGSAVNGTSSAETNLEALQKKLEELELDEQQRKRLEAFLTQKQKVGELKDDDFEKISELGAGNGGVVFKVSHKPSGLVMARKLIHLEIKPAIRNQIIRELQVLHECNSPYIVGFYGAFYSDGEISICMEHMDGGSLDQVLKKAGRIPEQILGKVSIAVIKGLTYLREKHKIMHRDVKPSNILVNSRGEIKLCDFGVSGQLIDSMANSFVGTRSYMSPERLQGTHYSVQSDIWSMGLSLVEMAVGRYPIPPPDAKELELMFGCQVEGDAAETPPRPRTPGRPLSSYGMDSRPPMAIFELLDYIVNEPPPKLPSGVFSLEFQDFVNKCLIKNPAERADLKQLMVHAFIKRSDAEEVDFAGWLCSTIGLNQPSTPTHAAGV
Structure (SMILES),pIC50 [1],pIC50 [2],pIC50 [3],IC50 [4],pIC50 [5],pIC50 [6],pIC50 [7]
COc1cc2c(Nc3ccc(Sc4nccn4C)c(Cl)c3)c(C#N)cnc2cc1OCCCN1CC[S+]([O-])CC1,8.70,< 6.00,7.44,–,–,–,–
COc1cc2c(Nc3ccc(Oc4ccccc4)cc3)c(C#N)cnc2cc1OCCCN1CCOCC1,8.40,5.26,6.40,> 1000 nM,< 6.00,< 6.00,< 6.00
COc1cc2c(Nc3ccc(Cc4nccn4C)c(Cl)c3)c(C#N)cnc2cc1OCCCN1CCOCC1,6.67,5.26,6.42,–,–,–,–
COc1cc2c(Nc3ccc(Sc4nccn4C)c(Cl)c3)c(C#N)cnc2cc1OCCCN1CCOCC1,8.70,< 6.00,8.30,> 1000 nM,8.10,< 6.00,< 6.00
COc1cc2c(Nc3ccc(Sc4nccn4C)c(Cl)c3)c(C#N)cnc2cc1OCCCN1CCCC1,8.40,< 6.00,8.00,–,–,–,–
O=C(NOCC1CC1)c1ccc(F)c(F)c1Nc1ccc(I)cc1Cl [CI-1040],–,< 6.00,6.88,–,–,–,–
COc1cc2c(Nc3ccc(Sc4nccn4C)c(Br)c3)c(C#N)cnc2cc1OCCCN1CCOCC1,8.70,5.28,8.30,–,–,–,–
COc1cc2c(Nc3ccc(Sc4nccn4C)c(C)c3)c(C#N)cnc2cc1OCCCN1CCOCC1,–,5.49,7.44,–,–,–,–
CCN1CCN(CCCOc2cc3ncc(C#N)c(Nc4ccc(Sc5nccn5C)c(Cl)c4)c3cc2OC)CC1,–,< 6.00,–,–,–,–,–
COc1cc2c(Nc3ccc(Sc4ccccn4)c(Cl)c3)c(C#N)cnc2cc1OCCCN1CCOCC1,8.10,< 6.00,6.70,–,–,–,–
COc1cc2c(Nc3ccc(Sc4ncc(C)n4C)c(Cl)c3)c(C#N)cnc2cc1OCCCN1CCOCC1,9.00,< 6.00,6.49,–,–,–,–
COc1cc2c(Nc3ccc(Sc4nccs4)c(Cl)c3)c(C#N)cnc2cc1OCCCN1CCOCC1,8.05,5.57,7.25,–,–,–,–
COc1cc2c(Nc3ccc(Sc4nccn4C)cc3)c(C#N)cnc2cc1OCCCN1CCOCC1,–,5.33,7.37,–,–,–,–
CCOc1cc2ncc(C#N)c(Nc3ccc(Sc4nccn4C)c(Cl)c3)c2cc1OCC,8.00,< 6.00,8.15,–,–,–,–
COc1cc2c(Nc3ccc(Sc4nc(C)c(C)n4C)c(Cl)c3)c(C#N)cnc2cc1OCCCN1CCOCC1,8.70,6.05,6.47,–,–,–,–
